# According to patent US20120006538A1, “METHOD FOR PRE-TREATMENT OF SUBTERRANEAN SITES ADJACENT TO WATER INJECTION WELLS” (E. I. DU PONT DE NEMOURS AND COMPANY, priority 2010, published 2012):
# Experiments:
# [1] = Amine concentration in brine #2 over amine-coated core sand, titration with 10% nitric acid (Example 4); conditions: titration with 10 wt % nitric acid, core sand in brine #2
# Description: Concentration of amines, in media and water, were analyzed by gas chromatography (GC). An Agilent Model 5890 (Agilent, Wilmington, Del.), GC equipped with a […] and a split/splitless injector, a DB-FFAP column (30 meter length×0.32 millimeter (mm) depth×0.25 micrometer particle size). […] The system was calibrated using a sample of N,N-Dimethyl-1-Dodecaneamine (Aldrich). Helium was used as the carrier gas. A temperature gradient of 50 degrees Celsius (° C.) to 250° C. at 30° C. increase per minute (min) was used. Retention times (in minutes, min) for various chemicals of interest included: N,N-Dimethyl-1-Dodecaneamine (8.08 min); N,N-Dimethyl-1-Tetradecaneamine (8.85 min); N,N-Dimethyl-1-Hexadecane-amine (9.90 min); N,N-Dimethyl-1-Octadecaneamine (10.26 min) and N-Methyl,N-Benzyl)-1-Tetradecaneamine (11.40 min).
# The procedure outlined in Example 2 was used to produce the sand/amine mixture except that 519 mg of the amine, 10 gr of Pentane. and 60.062 gr of sand from the Oa and Ob layers were used. 29.065 gr of this sand/amine mixture was added to 100 ml of brine #2 (Table 3) to create the sand/amine/brine mixture. […] 0.1 ml of 10 weight percent (wt %) nitric acid in water was added to this solution, and the pH and the amine concentration were measured again.
# [2] = Amine concentration in brine #2 over amine-coated core sand, titration with 1N HCl (Example 2); type: physicochemical; conditions: core sand in brine #2
# Description: Helium was used as the carrier gas.
# 38 milligrams (mg) of N N-Dimethyl-1-Dodecanamine (hereafter referred to as “the amine”) was added to 10.210 gr of Pentane. This solution was added to 10.1845 gr of specific sand layers (Oa and Ob) obtained from the Schrader Bluff formation of the Milne Point Unit of the Alaskan North slope. The oil content of the sand was first removed using a mixture of methanol and toluene (50/50, volume/volume) as solvent washes. The solvent mixture was subsequently evaporated off the core sand to produce clean, dry, flowable core sand. This sand was mixed with the amine and pentane solution to produce a slurry. This slurry was thoroughly mixed and the pentane was evaporated off leaving the amine on the sand (hereafter referred to as sand/amine mixture). 100 ml of brine #2 (Table 3) was added to the sand/amine mixture to create the sand/amine/brine mixture. […] The fact that the amine was not detected underlined its strong binding to the sand particles. […] The data underlines the remarkable efficiency of an acid at ionizing and removing the amine from the sand.
# [3] = Amine concentration in brine #2 over amine-coated core sand, titration with 10% acetic acid (Example 5); conditions: titration with 10 wt % acetic acid, core sand in brine #2
smiles,measurement,setting,value
CCCCCCCCCCCCN(C)C [N N-Dimethyl-1-Dodecanamine],pH of complete ionization and solubilization in the water of the amine,[1],< 6.7
same,pH of complete ionization and solubilization of the amine in the water,[2],< 6.0
same,pH of complete ionization and solubilization in the water of the amine,[3],< 6.7
